pIC50, pKi: −log10 of the molar value. “Also recorded” adds a separate entry of the source. Like-named read-outs stand apart in the source and are kept apart here.

The text below walks through data of article PMC4763008, “Selective Inhibition of Bakuchicin Isolated from Psoralea corylifolia on CYP1A in Human Liver Microsomes” (Evidence-based Complementary and Alternative Medicine : eCAM, 2016).

In series [1] the target is T1, CYP3A4 (Homo sapiens, UniProt P08684).
T1 construct: each reaction was performed with 0.5 mg/mL pooled human liver microsomes; tissue Corning Gentest BD UltraPool HLM 150; host or cells: pooled human liver microsomes
As to the kind of experiment: CYP inhibition, cocktail of probe substrates in pooled human liver microsomes: midazolam 1'-hydroxylation. It counts as in vitro ADME. As to conditions: pooled HLMs, substrate 2.5 μM. On the technique in general: Microsomes from liver hold many membrane-bound enzymes, among them those of drug oxidation.

Series [2] has as its target T2, CYP2D6 (Homo sapiens, UniProt P10635).
T2 construct: each reaction was performed with 0.5 mg/mL pooled human liver microsomes; tissue Corning Gentest BD UltraPool HLM 150; host or cells: pooled human liver microsomes
As to the kind of experiment: CYP inhibition, cocktail of probe substrates in pooled human liver microsomes: dextromethorphan O-demethylation. It counts as in vitro ADME. As to conditions: pooled HLMs, dextromethorphan O-deethylation, substrate 5 μM.

Series [3] has as its target T3, human recombinant cDNA-expressed CYP1A1 (Homo sapiens, UniProt P04798).
T3 construct: purchased Corning Gentest (Woburn, MA)
T3 sequence (P04798 1-512): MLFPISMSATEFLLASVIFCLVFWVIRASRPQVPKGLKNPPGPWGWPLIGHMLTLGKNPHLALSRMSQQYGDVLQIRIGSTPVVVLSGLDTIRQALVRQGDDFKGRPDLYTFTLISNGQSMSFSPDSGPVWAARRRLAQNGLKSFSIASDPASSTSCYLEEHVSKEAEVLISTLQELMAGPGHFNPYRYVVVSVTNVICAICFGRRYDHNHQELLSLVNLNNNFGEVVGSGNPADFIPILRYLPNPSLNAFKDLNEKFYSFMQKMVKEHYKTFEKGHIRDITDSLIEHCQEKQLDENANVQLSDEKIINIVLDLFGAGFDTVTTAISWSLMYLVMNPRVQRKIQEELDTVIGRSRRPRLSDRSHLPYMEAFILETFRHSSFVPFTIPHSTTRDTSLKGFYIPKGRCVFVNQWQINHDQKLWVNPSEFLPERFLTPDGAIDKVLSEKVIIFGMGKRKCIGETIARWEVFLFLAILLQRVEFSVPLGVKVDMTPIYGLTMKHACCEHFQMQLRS
As to the kind of experiment: Inhibition of phenacetin O-deethylation by human recombinant cDNA-expressed CYP1A1. It counts as biochemical. As to the method:
To confirm the selective inhibition of CYP1A by bakuchicin, 10 pmol of human recombinant cDNA-expressed CYP1A1 and CYP1A2 was incubated with bakuchicin at 0.1–50 μM and NGS for 60 min at 37°C after the addition of 80 μM phenacetin as a selective CYP1A substrate. Those were terminated by adding 100 μL acetonitrile containing 0.1% formic acid and 2.5 μL of internal standard solution (5 μM reserpine) in methanol. After mixing and centrifuging at 13,000 ×g for 12 min, a 5 μL aliquot was injected onto a C18 column for LC-MS/MS analysis. CYP1A1 and CYP1A2 activities were determined by phenacetin O-deethylation. The inhibition patterns of bakuchicin on CYP1A in human recombinant cDNA-expressed CYP1A1 and CYP1A2 were confirmed by Michaelis-Menten and secondary plot.
(§1) All measurements were performed using LC-MS/MS in multiple reaction monitoring mode. LC-MS/MS was performed using an Accela™ LC system coupled to a TSQ Vantage triple quadrupole mass spectrometer (Thermo Fisher Scientific Inc., USA) equipped with a HESI-II Spray source. Electrospray ionization was performed in positive mode at a spray voltage of 3,500 V (except for the detection of 6-hydroxy chlorzoxazone). Nitrogen was used as a sheath and auxiliary gas at optimum values of 45 and 20 (arbitrary units), respectively. Vaporizer and capillary temperatures were 150 and 300°C, respectively. For LC analysis an Inertsil® ODS-2 (3 μm, 2.1 × 150 mm) column (GL Sciences Inc., Torrance, CA) was used. The mobile phase consisted of acetonitrile (mobile phase A) and water (mobile phase B), both of which contained 0.1% formic acid, at a flow rate of 0.22 mL/min at 30°C.
All incubations were performed in duplicate, and data are presented as means. IC50 values (the concentration of inhibitor causing a 50% inhibition in enzyme activity) were obtained using percent activity versus log[I] concentration plots. Kinetic parameters were estimated by curve fitting using SigmaPlot (version 12.0, Systat Software, Inc.).

In series [4] the target is T4, CYP2C19 (Homo sapiens, UniProt P33261).
T4 construct: tissue Corning Gentest BD UltraPool HLM 150; host or cells: pooled human liver microsomes
As to the kind of experiment: CYP inhibition, cocktail of probe substrates in pooled human liver microsomes: omeprazole 5-hydroxylation. The series is classed as in vitro ADME. As to conditions: pooled HLMs, substrate 20 μM. As for the experimental part: All incubations were performed in duplicate, and data are presented as means. Briefly, each reaction was performed with 0.5 mg/mL pooled human liver microsomes in a final incubation volume of 0.1 mL. The incubation medium consisted of 0.1 M potassium phosphate buffer (pH 7.4) containing cocktail of probe substrates and a NADPH-generating system (NGS) of 0.1 M glucose 6-phosphate, 10 mg/mL β-NADPH, and 1.0 U/mL glucose-6-phosphate dehydrogenase. To investigate the IC50 of bakuchicin during CYP1A inhibition, bakuchicin (at final concentrations of 0–25 μM) was incubated without preincubation. In addition, the mixture with bakuchicin was preincubated for 15 min without the probe substrate cocktail in the presence or absence of 1 mM β-NADPH. After the reaction was initiated by adding the NGS for 60 min, incubated samples were terminated by adding 100 μL acetonitrile containing 0.1% formic acid and 2.5 μL of internal standard solution (5 μM reserpine) in methanol. After mixing and centrifuging at 13,000 ×g for 12 min, a 5 μL aliquot was injected onto a C18 column for LC-MS/MS analysis.
as §1
All incubations were performed in duplicate, and data are presented as means. […]

Series [5] deals with T5, CYP2C9 (Homo sapiens, UniProt P11712).
T5 construct: each reaction was performed with 0.5 mg/mL pooled human liver microsomes; tissue Corning Gentest BD UltraPool HLM 150; host or cells: pooled human liver microsomes
As to the kind of experiment: CYP inhibition, cocktail of probe substrates in pooled human liver microsomes: diclofenac 4'-hydroxylation. It counts as in vitro ADME. As to conditions: pooled HLMs, substrate 10 μM.

[6] abbreviates: 15 min preincubation with NADPH, read-out: IC50 With preincubation with NADPH.
[7] abbreviates: 15 min preincubation without NADPH, read-out: IC50 With preincubation Without NADPH.
Setting [8] is: without preincubation, read-out: IC50 Without preincubation.

T1 sequence (P08684 whole entry): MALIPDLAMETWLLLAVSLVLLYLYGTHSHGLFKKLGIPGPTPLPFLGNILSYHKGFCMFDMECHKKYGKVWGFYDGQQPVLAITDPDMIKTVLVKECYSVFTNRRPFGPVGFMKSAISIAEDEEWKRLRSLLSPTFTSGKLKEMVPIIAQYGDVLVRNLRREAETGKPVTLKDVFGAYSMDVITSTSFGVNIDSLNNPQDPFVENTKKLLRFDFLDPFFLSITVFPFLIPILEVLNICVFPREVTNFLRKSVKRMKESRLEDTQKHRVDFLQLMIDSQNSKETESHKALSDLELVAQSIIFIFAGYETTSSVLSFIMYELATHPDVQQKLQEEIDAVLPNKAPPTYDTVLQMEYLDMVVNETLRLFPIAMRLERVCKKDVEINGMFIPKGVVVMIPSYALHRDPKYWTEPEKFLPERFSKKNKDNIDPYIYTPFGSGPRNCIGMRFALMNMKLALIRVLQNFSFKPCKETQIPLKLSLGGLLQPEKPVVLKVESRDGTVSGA
T2 sequence (P10635 whole entry): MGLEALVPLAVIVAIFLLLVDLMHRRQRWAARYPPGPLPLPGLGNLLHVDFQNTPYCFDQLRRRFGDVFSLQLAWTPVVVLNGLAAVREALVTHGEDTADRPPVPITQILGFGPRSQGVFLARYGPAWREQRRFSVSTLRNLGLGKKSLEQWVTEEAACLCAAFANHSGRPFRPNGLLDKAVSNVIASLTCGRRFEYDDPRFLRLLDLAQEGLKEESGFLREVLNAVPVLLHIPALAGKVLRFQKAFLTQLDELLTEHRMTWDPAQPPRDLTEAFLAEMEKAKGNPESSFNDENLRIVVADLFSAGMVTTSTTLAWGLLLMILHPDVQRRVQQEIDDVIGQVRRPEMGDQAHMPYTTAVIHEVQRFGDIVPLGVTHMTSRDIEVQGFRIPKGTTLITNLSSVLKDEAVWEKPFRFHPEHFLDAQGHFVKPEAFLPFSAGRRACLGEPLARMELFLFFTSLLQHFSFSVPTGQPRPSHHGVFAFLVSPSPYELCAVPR
T5 sequence (P11712 whole entry): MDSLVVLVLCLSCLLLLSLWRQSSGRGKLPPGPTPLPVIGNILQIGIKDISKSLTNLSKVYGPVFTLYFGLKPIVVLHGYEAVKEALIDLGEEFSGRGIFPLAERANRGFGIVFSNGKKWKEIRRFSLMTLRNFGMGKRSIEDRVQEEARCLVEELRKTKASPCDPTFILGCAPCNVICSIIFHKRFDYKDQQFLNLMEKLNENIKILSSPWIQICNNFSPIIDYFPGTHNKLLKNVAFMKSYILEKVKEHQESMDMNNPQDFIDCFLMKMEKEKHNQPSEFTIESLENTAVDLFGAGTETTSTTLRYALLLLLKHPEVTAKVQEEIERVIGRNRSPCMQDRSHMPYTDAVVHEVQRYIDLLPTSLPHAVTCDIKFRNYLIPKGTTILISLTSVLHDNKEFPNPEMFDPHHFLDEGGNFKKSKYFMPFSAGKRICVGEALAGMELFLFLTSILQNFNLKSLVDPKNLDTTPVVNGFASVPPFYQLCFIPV
T4 sequence (P33261 whole entry): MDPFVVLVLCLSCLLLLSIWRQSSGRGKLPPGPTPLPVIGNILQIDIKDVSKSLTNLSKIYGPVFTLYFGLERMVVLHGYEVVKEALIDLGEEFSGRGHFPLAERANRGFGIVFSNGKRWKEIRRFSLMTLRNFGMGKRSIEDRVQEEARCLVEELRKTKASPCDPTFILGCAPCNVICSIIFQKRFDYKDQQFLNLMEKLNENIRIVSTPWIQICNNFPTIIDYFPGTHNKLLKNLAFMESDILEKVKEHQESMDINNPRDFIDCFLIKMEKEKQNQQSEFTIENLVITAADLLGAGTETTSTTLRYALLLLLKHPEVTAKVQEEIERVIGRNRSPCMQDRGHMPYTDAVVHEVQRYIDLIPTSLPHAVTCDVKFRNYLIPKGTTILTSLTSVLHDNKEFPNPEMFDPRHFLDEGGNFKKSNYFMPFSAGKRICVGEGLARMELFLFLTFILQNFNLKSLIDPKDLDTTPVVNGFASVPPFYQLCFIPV

A word on the pIC50: it is the IC50 on a negative log10 scale, so that one unit is a factor of ten. As a reminder, the pKi is −log10 of the Ki, conventionally taken in molar units. Turning to `O=c1ccc2c(ccc3ccoc32)o1` [Bakuchicin], the negative logarithm of the IC50 (pIC50) in series [1] (setting [6]) was less than 4.00; in series [1] (setting [7]) it was less than 4.00; in series [1] (setting [8]), less than 4.00; in series [2] (setting [6]) it was 4.82; in series [2] (setting [7]), 4.66; in series [2] (setting [8]), 4.74. Besides, the pIC50 was 6.70 in series [3] (recombinant CYP1A1, 80 μM phenacetin, 60 min, read-out: IC50, CYP1A1-catalyzed phenacetin O-deethylase activity); less than 4.00 in series [4] (setting [6]); less than 4.00 in series [4] (setting [7]); less than 4.00 in series [4] (setting [8]); less than 4.00 in series [5] (setting [6]); less than 4.00 in series [5] (setting [7]). The pIC50 in series [5] (setting [8]) was less than 4.00. Further, the “inhibition mode on CYP1A1” value in series [3] (recombinant CYP1A1, Lineweaver-Burk plot) is “competitive inhibitor; also recorded: competitive inhibition”. Moreover, in series [3] (recombinant CYP1A1, phenacetin 20, 40, 80 μM, 60 min, read-out: Ki on CYP1A1 (secondary plot)), the negative logarithm of the Ki (pKi) is 6.96.
